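Five concentrations, 48 hours, 96-well plates. At the TGI there is no net growth.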
Key:
Assay in all cases: NCI-60 cell line screen, 48 h
HOP-62 NSCLC = system: HOP-62 NSCLC
A498 renal = system: A498 renal
HCT-15 colon = system: HCT-15 colon
SF-295 CNS = system: SF-295 CNS
HCT-116 colon = system: HCT-116 colon
SF-268 CNS = system: SF-268 CNS
OVCAR-8 ovarian = system: OVCAR-8 ovarian
NCI-H226 lung = system: NCI-H226 lung
RPMI-8226 leukemia = system: RPMI-8226 leukemia
MDA-MB-435 = system: MDA-MB-435
MALME-3M melanoma = system: MALME-3M melanoma
NCI-H460 lung = system: NCI-H460 lung
SNB-19 CNS = system: SNB-19 CNS
MOLT-4 leukemia = system: MOLT-4 leukemia
NCI-H23 lung = system: NCI-H23 lung
MDA-N = system: MDA-N
UACC-62 melanoma = system: UACC-62 melanoma
MCF7 breast = system: MCF7 breast
SF-539 CNS = system: SF-539 CNS
NCI-H522 lung = system: NCI-H522 lung
DU-145 prostate = system: DU-145 prostate
KM12 colon = system: KM12 colon
HT29 colon = system: HT29 colon
HCC-2998 colon = system: HCC-2998 colon
UO-31 renal = system: UO-31 renal
SK-MEL-5 melanoma = system: SK-MEL-5 melanoma
HS 578T breast = system: HS 578T breast
COLO 205 colon = system: COLO 205 colon
U251 CNS = system: U251 CNS
SW-620 colon = system: SW-620 colon
BT-549 breast = system: BT-549 breast
SN12C renal = system: SN12C renal
T-47D breast = system: T-47D breast
OVCAR-5 ovarian = system: OVCAR-5 ovarian
OVCAR-3 ovarian = system: OVCAR-3 ovarian
TK-10 renal = system: TK-10 renal
SK-MEL-2 melanoma = system: SK-MEL-2 melanoma
NCI/ADR-RES ovarian = system: NCI/ADR-RES ovarian
SK-OV-3 ovarian = system: SK-OV-3 ovarian
HOP-92 NSCLC = system: HOP-92 NSCLC
UACC-257 melanoma = system: UACC-257 melanoma
HL-60(TB) leukemia = system: HL-60(TB) leukemia
SK-MEL-28 melanoma = system: SK-MEL-28 melanoma
EKVX NSCLC = system: EKVX NSCLC
RXF 393 renal = system: RXF 393 renal
OVCAR-4 ovarian = system: OVCAR-4 ovarian
CCRF-CEM leukemia = system: CCRF-CEM leukemia
IGROV1 ovarian = system: IGROV1 ovarian
A549 NSCLC = system: A549 NSCLC
M14 melanoma = system: M14 melanoma
K-562 leukemia = system: K-562 leukemia
ACHN renal = system: ACHN renal
LOX IMVI melanoma = system: LOX IMVI melanoma
CAKI-1 renal = system: CAKI-1 renal
MDA-MB-231 breast = system: MDA-MB-231 breast
786-0 renal = system: 786-0 renal
PC-3 prostate = system: PC-3 prostate
SR leukemia = system: SR leukemia
SNB-75 CNS = system: SNB-75 CNS

With `O=c1[nH]nc(Cc2ccccc2)n1/N=C/c1ccccc1O` the TGI (HOP-62 NSCLC) was 99.8 µM, the TGI (A498 renal) was > 100 µM and the TGI (HCT-15 colon) was > 100 µM. For the same compound, the TGI (SF-295 CNS) was > 100 µM, the TGI (HCT-116 colon) was > 100 µM and the TGI (SF-268 CNS) was > 100 µM. For the same compound, the TGI (OVCAR-8 ovarian) was > 100 µM, the TGI (NCI-H226 lung) was > 100 µM and the TGI (RPMI-8226 leukemia) was > 100 µM. The TGI (MDA-MB-435) was > 100 µM, the TGI (MALME-3M melanoma) was > 100 µM and the TGI (NCI-H460 lung) was > 100 µM. For the same compound, the TGI (SNB-19 CNS) was > 100 µM, the TGI (MOLT-4 leukemia) was > 100 µM and the TGI (NCI-H23 lung) was > 100 µM. The TGI (MDA-N) was > 100 µM, the TGI (UACC-62 melanoma) was > 100 µM and the TGI (MCF7 breast) was > 100 µM. The TGI (SF-539 CNS) was > 100 µM, the TGI (NCI-H522 lung) was > 100 µM and the TGI (DU-145 prostate) was > 100 µM. The TGI (KM12 colon) was > 100 µM, the TGI (HT29 colon) was > 100 µM and the TGI (HCC-2998 colon) was > 100 µM. The TGI (UO-31 renal) was > 100 µM, the TGI (SK-MEL-5 melanoma) was > 100 µM and the TGI (HS 578T breast) was > 100 µM. For the same compound, the TGI (COLO 205 colon) was > 100 µM, the TGI (U251 CNS) was > 100 µM and the TGI (SW-620 colon) was > 100 µM. For the same compound, the TGI (BT-549 breast) was > 100 µM, the TGI (SN12C renal) was > 100 µM and the TGI (T-47D breast) was > 100 µM. For the same compound, the TGI (OVCAR-5 ovarian) was > 100 µM, the TGI (OVCAR-3 ovarian) was > 100 µM and the TGI (TK-10 renal) was > 100 µM. For the same compound, the TGI (SK-MEL-2 melanoma) was > 100 µM, the TGI (NCI/ADR-RES ovarian) was > 100 µM and the TGI (SK-OV-3 ovarian) was > 100 µM. For the same compound, the TGI (HOP-92 NSCLC) was > 100 µM, the TGI (UACC-257 melanoma) was > 100 µM and the TGI (HL-60(TB) leukemia) was > 100 µM. The TGI (SK-MEL-28 melanoma) was > 100 µM, the TGI (EKVX NSCLC) was > 100 µM and the TGI (RXF 393 renal) was 53.5 µM. The TGI (OVCAR-4 ovarian) was > 100 µM, the TGI (CCRF-CEM leukemia) was > 100 µM and the TGI (IGROV1 ovarian) was > 100 µM. The TGI (A549 NSCLC) was > 100 µM, the TGI (M14 melanoma) was > 100 µM and the TGI (K-562 leukemia) was > 100 µM. For the same compound, the TGI (ACHN renal) was > 100 µM, the TGI (LOX IMVI melanoma) was > 100 µM and the TGI (CAKI-1 renal) was > 100 µM. The TGI (MDA-MB-231 breast) was > 100 µM and the TGI (786-0 renal) was > 100 µM.
In the case of `COc1ccc(/C=C2\N=C(SC)N(CN3CCOCC3)C2=O)cc1`, the TGI (HOP-62 NSCLC) was > 100 µM, the TGI (A498 renal) was > 100 µM and the TGI (HCT-15 colon) was > 100 µM. For the same compound, the TGI (SF-295 CNS) was > 100 µM, the TGI (HCT-116 colon) was > 100 µM and the TGI (SF-268 CNS) was > 100 µM. The TGI (OVCAR-8 ovarian) was > 100 µM, the TGI (NCI-H226 lung) was > 100 µM and the TGI (RPMI-8226 leukemia) was > 100 µM. For the same compound, the TGI (MDA-MB-435) was > 100 µM, the TGI (MALME-3M melanoma) was > 100 µM and the TGI (SNB-19 CNS) was > 100 µM. The TGI (MOLT-4 leukemia) was > 100 µM, the TGI (NCI-H23 lung) was > 100 µM and the TGI (MDA-N) was > 100 µM. The TGI (UACC-62 melanoma) was > 100 µM, the TGI (MCF7 breast) was > 100 µM and the TGI (NCI-H522 lung) was > 100 µM. For the same compound, the TGI (DU-145 prostate) was > 100 µM, the TGI (KM12 colon) was > 100 µM and the TGI (HT29 colon) was > 100 µM. The TGI (UO-31 renal) was > 100 µM, the TGI (SK-MEL-5 melanoma) was > 100 µM and the TGI (HS 578T breast) was > 100 µM. The TGI (COLO 205 colon) was > 100 µM, the TGI (U251 CNS) was > 100 µM and the TGI (SW-620 colon) was > 100 µM. For the same compound, the TGI (PC-3 prostate) was > 100 µM, the TGI (SN12C renal) was > 100 µM and the TGI (SR leukemia) was > 100 µM. For the same compound, the TGI (OVCAR-5 ovarian) was > 100 µM, the TGI (OVCAR-3 ovarian) was > 100 µM and the TGI (TK-10 renal) was > 100 µM. The TGI (SK-MEL-2 melanoma) was > 100 µM, the TGI (NCI/ADR-RES ovarian) was > 100 µM and the TGI (SK-OV-3 ovarian) was > 100 µM. For the same compound, the TGI (HOP-92 NSCLC) was 67.4 µM, the TGI (HL-60(TB) leukemia) was > 100 µM and the TGI (SK-MEL-28 melanoma) was > 100 µM. For the same compound, the TGI (EKVX NSCLC) was > 100 µM, the TGI (OVCAR-4 ovarian) was 78.2 µM and the TGI (SNB-75 CNS) was > 100 µM. The TGI (CCRF-CEM leukemia) was > 100 µM, the TGI (IGROV1 ovarian) was > 100 µM and the TGI (A549 NSCLC) was > 100 µM. The TGI (M14 melanoma) was > 100 µM, the TGI (K-562 leukemia) was > 100 µM and the TGI (ACHN renal) was > 100 µM. For the same compound, the TGI (LOX IMVI melanoma) was > 100 µM, the TGI (MDA-MB-231 breast) was > 100 µM and the TGI (786-0 renal) was > 100 µM.

— PubChem BioAssay (NCI)
